In patent publication US20240336624A1, “PARP INHIBITOR CONTAINING PIPERAZINE STRUCTURE, PREPARATION METHOD THEREFOR AND PHARMACEUTICAL USE THEREOF” (WIGEN BIOMEDICINE TECHNOLOGY (SHANGHAI) CO., LTD., priority 2021, published 2024) one finds IC50 data, which are given here for 66 compounds.

Like-named read-outs stand apart in the source and are kept apart here.

What is called IC50 is the concentration that gives 50% inhibition.

The experiment has as its target PARP-1 enzyme (Homo sapiens, UniProt P09874). The experiment is described as follows: In vitro inhibition of activity of poly (ADP-ribose) polymerase [PARP-1 enzyme], histone-coated plate chemiluminescence. In kind it is biochemical. To be noted: read-out: Inhibitory activity against PARP-1 (IC50). How it is done:
Example 69. Experiment on In Vitro Inhibition of Activity of Poly (ADP-Ribose) Polymerase [PARP-1 Enzyme] with Compounds of the Present Invention
The histones were coated onto 384-well plates at 4° C. overnight, rinsed three times with a PBST buffer, and blocked at room temperature for 1 h. After 1 h, the histones were rinsed three more times with PBST, DMSO or a serially diluted compound, and a mixture containing PARP-1 enzymes and DNA was added, and the resulting mixture was incubated at 25° C. for 10 min. After 10 min NAD^+ was added to start the reaction. After reacting at room temperature for 60 min, the reaction solution was rinsed three times with PBST, and the level of poly/mono-ADP ribose on the histones was detected by the addition of a poly/mono-ADP ribose antibody conjugated with horseradish peroxidase ([…]). After incubation at room temperature for 1 h, HRP substrates ECL A and B were added, and Envision quantified chemiluminescence. The inhibition percentages and IC50 of the compounds were calculated compared to the control group DMSO.

PARP-1 enzyme, sequence (P09874 whole entry): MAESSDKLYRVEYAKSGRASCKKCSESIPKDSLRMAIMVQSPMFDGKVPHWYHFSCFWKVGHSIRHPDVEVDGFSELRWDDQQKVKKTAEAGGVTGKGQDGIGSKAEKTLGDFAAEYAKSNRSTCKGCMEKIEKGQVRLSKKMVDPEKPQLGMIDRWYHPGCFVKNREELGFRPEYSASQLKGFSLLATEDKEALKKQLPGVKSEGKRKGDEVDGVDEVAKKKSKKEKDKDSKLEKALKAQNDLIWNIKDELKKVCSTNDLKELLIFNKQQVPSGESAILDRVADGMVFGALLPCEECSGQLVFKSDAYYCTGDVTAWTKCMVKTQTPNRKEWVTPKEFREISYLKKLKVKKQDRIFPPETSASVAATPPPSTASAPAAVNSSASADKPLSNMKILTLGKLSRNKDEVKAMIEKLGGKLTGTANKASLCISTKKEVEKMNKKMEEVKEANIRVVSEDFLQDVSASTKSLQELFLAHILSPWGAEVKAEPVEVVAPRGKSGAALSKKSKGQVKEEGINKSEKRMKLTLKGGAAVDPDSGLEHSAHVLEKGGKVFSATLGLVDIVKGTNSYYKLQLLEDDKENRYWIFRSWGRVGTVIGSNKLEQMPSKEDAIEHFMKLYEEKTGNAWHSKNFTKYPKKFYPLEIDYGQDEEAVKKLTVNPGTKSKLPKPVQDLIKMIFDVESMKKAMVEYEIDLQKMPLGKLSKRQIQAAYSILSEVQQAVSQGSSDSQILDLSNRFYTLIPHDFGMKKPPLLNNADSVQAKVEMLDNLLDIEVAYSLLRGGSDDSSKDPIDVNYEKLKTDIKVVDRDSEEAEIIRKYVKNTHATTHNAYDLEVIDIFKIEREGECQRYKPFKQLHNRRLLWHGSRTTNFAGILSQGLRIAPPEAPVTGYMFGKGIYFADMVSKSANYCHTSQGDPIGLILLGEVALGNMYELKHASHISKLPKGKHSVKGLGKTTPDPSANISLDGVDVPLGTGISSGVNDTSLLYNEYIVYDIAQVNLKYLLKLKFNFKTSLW

As for `CCc1cc2ncc(CN3CCN(c4cnc(C(=O)NC)nc4)CC3)cc2[nH]c1=O` [Compound 2], the IC50 (class symbols) is at most 0.01 µM. On to `CCc1cc2ncc(C(C)N3CCN(c4ccc(C(=O)NC)nc4)CC3)cc2[nH]c1=O` (stereo not drawn) [Compound 3], for which the IC50 (class symbols) is at most 0.01 µM. Turning to `CCc1nc2ccc(CN3CCN(c4ccc(C(=O)NC)nc4)CC3)nc2[nH]c1=O` [Compound 4], the IC50 (class symbols) was at most 0.01 µM. With `CCC1Oc2ncc(CN3CCN(c4ccc(C(=O)NC)nc4)CC3)cc2NC1=O` (stereo not drawn) [Compound 5], the concentration for half-maximal inhibition (IC50) (numeric values) was 0.0017 µM. Turning to `CCc1cc2ncc(CN3CCN(c4ccc(C(=O)NC5CCC5)nc4)CC3)cc2[nH]c1=O` [Compound 6], the IC50 (class symbols) was over 0.05 µM. As to `CCc1cc2ncc(CN3CCN(c4ccc(C(=O)NC5CC5)nc4F)CC3)cc2[nH]c1=O` [Compound 7], the 50% inhibitory concentration (IC50) (class symbols) fell in the range of 0.01 to 0.05 µM. Regarding `CCc1cc2ncc(CN3CCN(c4ccc(C(=O)NC5CC5)nc4C)CC3)cc2[nH]c1=O` [Compound 8], where the note is “class symbols”, the IC50 was 0.01 to 0.05 µM. Take `CCc1cc2ncc(CN3CCN(c4ccc(C(=O)NC5CC5)nc4C(F)F)CC3)cc2[nH]c1=O` [Compound 9]: the IC50 (class symbols) lay in the range of 0.01 to 0.05 µM. For `CCc1cc2ncc(C(C)N3CCN(c4ccc(C(=O)NC5CC5)nc4)CC3)cc2[nH]c1=O` (stereo not drawn) [Compound 10], the half-maximal inhibitory concentration (IC50) (class symbols) is 0.01 to 0.05 µM. On the same count and under the same terms, the value for `CCc1cc2ncc(CN3CCN(c4ccc(C(=O)NC5CC5F)nc4)CC3)cc2[nH]c1=O` (stereo not drawn) [Compound 11] was at most 0.01 µM; that for `CCc1cc2ncc(CN3CCN(c4ccc(C(=O)NC5CC(F)C5)nc4)CC3)cc2[nH]c1=O` (stereo not drawn) [Compound 12] was at most 0.01 µM; that for `CCc1cc2ncc(CN3CCN(c4ccc(C(=O)NC5CC(F)(F)C5)nc4)CC3)cc2[nH]c1=O` [Compound 13] was at most 0.01 µM. Regarding `CCc1nc2ccc(CN3CCN(c4ccc(C(=O)NC5CC5)nc4)CC3)cc2[nH]c1=O` [Compound 14], the half-maximal inhibitory concentration (IC50) (class symbols) is at most 0.01 µM. Take `CCc1nc2ccc(CN3CCN(c4ccc(C(=O)NC5CCC5)nc4)CC3)cc2[nH]c1=O` [Compound 15]: the IC50 (class symbols) is at most 0.01 µM. The same measure, in the same setting: then `O=C(NC1CC1)c1ccc(N2CCN(Cc3ccc4nc(CCF)c(=O)[nH]c4c3)CC2)cn1` [Compound 16], with at most 0.01 µM; and `O=C(NC1CC1)c1ccc(N2CCN(Cc3ccc4nc(CC(F)F)c(=O)[nH]c4c3)CC2)cn1` [Compound 17], with at most 0.01 µM; and `CCc1nc2ccc(CN3CCN(c4ccc(C(=O)NC5CC5)nc4F)CC3)cc2[nH]c1=O` [Compound 18], with at most 0.01 µM. Same read-out and setting: then `CCc1nc2ccc(C(C)N3CCN(c4ccc(C(=O)NC5CC5)nc4)CC3)cc2[nH]c1=O` (stereo not drawn) [Compound 19], with at most 0.01 µM. With `CCc1nc2ccc(CN3CCN(c4ccc(C(=O)NC5CC(F)C5)nc4)CC3)cc2[nH]c1=O` (stereo not drawn) [Compound 21], the half-maximal inhibitory concentration (IC50) (class symbols) is at most 0.01 µM. With `CCc1nc2ccc(CN3CCN(c4ccc(C(=O)NC5CC(F)(F)C5)nc4)CC3)cc2[nH]c1=O` [Compound 22], under “class symbols”, the half-maximal inhibitory concentration (IC50) is at most 0.01 µM. Turning to `CCc1nc(C(=O)NC2CC2)ccc1N1CCN(Cc2ccc3nc(CC)c(=O)[nH]c3c2)CC1` [Compound 23], the half-inhibitory concentration (IC50) (class symbols) is at most 0.01 µM. For `CCc1nc2ccc(CN3CCN(c4ccc(C(=O)NC5CC5)nc4C(F)F)CC3)cc2[nH]c1=O` [Compound 24], the IC50 (class symbols) was at most 0.01 µM. With `CCc1nc2ccc(CN3CCN(c4ccc(C(=O)NC5CC5)nc4C)CC3)cc2[nH]c1=O` [Compound 25], the IC50 (class symbols) is at most 0.01 µM. For `CCc1nc2ncc(CN3CCN(c4ccc(C(=O)NC5CC5)nc4)CC3)cc2[nH]c1=O` [Compound 26], the IC50 (class symbols) was at most 0.01 µM. For the compound `CCc1nc2ncc(CN3CCN(c4ccc(C(=O)NC5CC5)nc4F)CC3)cc2[nH]c1=O` [Compound 27], the IC50 (class symbols) lay within 0.01 to 0.05 µM. For `CCc1nc2ncc(CN3CCN(c4ccc(C(=O)NC5CC5)nc4C(F)F)CC3)cc2[nH]c1=O` [Compound 28], the IC50 (class symbols) fell in the range of 0.01 to 0.05 µM. Same read-out and setting: the value for `CCc1cc2ncc(CN3CCN(c4cnc(C(=O)NC)cn4)CC3)cc2[nH]c1=O` [Compound 29] was 0.01 to 0.05 µM; that for `CCc1cc2ncc(CN3CCN(c4ccc(C(=O)NC)nn4)CC3)cc2[nH]c1=O` [Compound 30] was 0.01 to 0.05 µM; that for `CCc1cc2ncc(CN3CCN(c4cnc(C(=O)NC5CC5)cn4)CC3)cc2[nH]c1=O` [Compound 31] was 0.01 to 0.05 µM. Same read-out and setting: the value for `CCc1cc2ncc(CN3CCN(c4cnc(C(=O)NC5CC5)nc4)CC3)cc2[nH]c1=O` [Compound 32] was 0.01 to 0.05 µM; that for `CCc1cc2ncc(CN3CCN(c4ccc(C(=O)NC5CC5)nn4)CC3)cc2[nH]c1=O` [Compound 33] was at most 0.01 µM; that for `CCc1cc2ncc(CN3CCN(c4cnc(C(=O)NC5CC5)nc4C(F)F)CC3)cc2[nH]c1=O` [Compound 34] was at most 0.01 µM. Consider `CCc1cc2ncc(C(C)N3CCN(c4cnc(C(=O)NC5CC5)nc4)CC3)cc2[nH]c1=O` (stereo not drawn) [Compound 35], for which, under “class symbols”, the IC50 is at most 0.01 µM. As for `CCc1cc2ncc(CN3CCN(c4cnc(C(=O)NC5CC5)nc4F)CC3)cc2[nH]c1=O` [Compound 36], the IC50 (class symbols) is at most 0.01 µM. Take `CCc1cc2ncc(CN3CCN(c4ccc(C(=O)NC5CC5F)nn4)CC3)cc2[nH]c1=O` (stereo not drawn) [Compound 37]: the IC50 (class symbols) fell in the range of 0.01 to 0.05 µM. With `CCc1cc2ncc(CN3CCN(c4cnc(C(=O)NC5CC(F)C5)cn4)CC3)cc2[nH]c1=O` (stereo not drawn) [Compound 38], the concentration for half-maximal inhibition (IC50) (class symbols) lay in the range of 0.01 to 0.05 µM. As for `CCc1cc2ncc(CN3CCN(c4cnc(C(=O)NC5CC(F)(F)C5)nc4)CC3)cc2[nH]c1=O` [Compound 39], the IC50 (class symbols) was 0.01 to 0.05 µM.

`CCc1nc(C(=O)NC)ccc1N1CCN(C(C)c2cnc3cc(CC)c(=O)[nH]c3c2)CC1` (stereo not drawn) [Compound 40]: the IC50 (class symbols) lay within 0.01 to 0.05 µM. For the compound `CCc1cc2ncc(C(C)N3CCN(c4ccc(C(=O)NC)nc4F)CC3)cc2[nH]c1=O` (stereo not drawn) [Compound 41], where the note is “class symbols”, the half-inhibitory concentration (IC50) lay within 0.01 to 0.05 µM. Regarding `CCc1cc2ncc(C(C)N3CCN(c4ccc(C(=O)NC5CC5)nc4)CC3)cc2[nH]c1=O` (stereo not drawn) [Compound 42], where the note is “class symbols”, the 50% inhibitory concentration (IC50) was in the range of 0.01 to 0.05 µM. As for `CCc1cc2ncc(C(C)N3CCN(c4ccc(C(=O)NC)nc4C(F)F)CC3)cc2[nH]c1=O` (stereo not drawn) [Compound 43], for the setting “class symbols”, the IC50 is at most 0.01 µM. On the same count and under the same terms, the value for `CCc1cc2ncc(CN3CCN(c4ccc(C(=O)NC)nc4)CC3)nc2[nH]c1=O` [Compound 44] was at most 0.01 µM; that for `CCc1cc2ccc(CN3CCN(c4ccc(C(=O)NC)nc4)CC3)nc2[nH]c1=O` [Compound 45] was at most 0.01 µM.

Regarding `CCc1nc2ccc(CN3CCN(c4ccc(C(=O)NC5CC5)nc4)CC3)nc2[nH]c1=O` [Compound 46], the concentration for half-maximal inhibition (IC50) (class symbols) is at most 0.01 µM. On to `CCc1nc2ccc(CN3CCN(c4ccc(C(=O)NC)nc4C)CC3)nc2[nH]c1=O` [Compound 47], for which the IC50 (class symbols) was at most 0.01 µM. With `CCc1nc2ccc(CN3CCN(c4ccc(C(=O)NC)nc4F)CC3)nc2[nH]c1=O` [Compound 48], under “class symbols”, the IC50 is at most 0.01 µM. Take `CCc1cc2ncc(CN3CCN(c4ccc(C(=O)NC5CC5)nc4)CC3)nc2[nH]c1=O` [Compound 49]: the IC50 (class symbols) is at most 0.01 µM. `CCc1cc2ncc(CN3CCN(c4ccc(C(=O)NC)nc4C(F)F)CC3)nc2[nH]c1=O` [Compound 50]: the IC50 (class symbols) was at most 0.01 µM. Same read-out and setting: then `CCc1cc2ncc(CN3CCN(c4ccc(C(=O)NC)nc4F)CC3)nc2[nH]c1=O` [Compound 51], with 0.01 to 0.05 µM; and `CCc1cc2ccc(CN3CCN(c4ccc(C(=O)NC5CC5)nc4)CC3)nc2[nH]c1=O` [Compound 52], with 0.01 to 0.05 µM; and `CCc1cc2ccc(CN3CCN(c4ccc(C(=O)NC)nc4C(F)F)CC3)nc2[nH]c1=O` [Compound 53], with 0.01 to 0.05 µM. `CCc1cc2ccc(CN3CCN(c4ccc(C(=O)NC)nc4F)CC3)nc2[nH]c1=O` [Compound 54]: the IC50 (class symbols) is at most 0.01 µM. In the case of `CCC1Oc2ncc(CN3CCN(c4ccc(C(=O)NC5CC5)nc4)CC3)cc2NC1=O` (stereo not drawn) [Compound 55], where the note is “class symbols”, the IC50 was in the range of 0.01 to 0.05 µM.

Consider `CCC1Oc2ncc(CN3CCN(c4ccc(C(=O)NC)nc4F)CC3)cc2NC1=O` (stereo not drawn) [Compound 56], for which the IC50 (class symbols) is at most 0.01 µM. Same read-out and setting: the value for `CCC1Nc2ncc(CN3CCN(c4ccc(C(=O)NC)nc4)CC3)cc2NC1=O` (stereo not drawn) [Compound 57] was at most 0.01 µM.

Regarding `CCC1C(=O)Nc2cc(CN3CCN(c4ccc(C(=O)NC)nc4)CC3)cnc2N1C` (stereo not drawn) [Compound 58], the IC50 (class symbols) was at most 0.01 µM.

On to `CCC1C(=O)Nc2cc(CN3CCN(c4ccc(C(=O)NC5CC5)nc4)CC3)cnc2N1C` (stereo not drawn) [Compound 59], for which, under “class symbols”, the IC50 is 0.01 to 0.05 µM.

As to `CCC1Cc2ncc(CN3CCN(c4ccc(C(=O)NC5CC5)nc4)CC3)cc2NC1=O` (stereo not drawn) [Compound 60], the half-maximal inhibitory concentration (IC50) (class symbols) was in the range of 0.01 to 0.05 µM. Regarding `CCC1C(=O)Nc2cc(CN3CCN(c4ccc(C(=O)NC)nc4F)CC3)cnc2C1(C)C` (stereo not drawn) [Compound 61], the IC50 (class symbols) was at most 0.01 µM. Consider `O=C(NC1CC1)c1ccc(N2CCN(Cc3cnc4cc(C5CC5)c(=O)[nH]c4c3)CC2)cn1` [Compound 62], for which, for the setting “class symbols”, the 50% inhibitory concentration (IC50) was in the range of 0.01 to 0.05 µM. Same read-out and setting: then `O=C(NC1CC1)c1ccc(N2CCN(Cc3ccc4nc(C5CC5)c(=O)[nH]c4c3)CC2)cn1` [Compound 63], with at most 0.01 µM. As for `O=C(NC1CC1)c1ccc(N2CCN(Cc3cnc4nc(C5CC5)c(=O)[nH]c4c3)CC2)cn1` [Compound 64], the half-maximal inhibitory concentration (IC50) (class symbols) is at most 0.01 µM. On the same count and under the same terms, the value for `CNC(=O)c1cnc(N2CCN(Cc3cnc4cc(C5CC5)c(=O)[nH]c4c3)CC2)cn1` [Compound 65] was 0.01 to 0.05 µM. Turning to `CNC(=O)c1ncc(N2CCN(Cc3cnc4cc(C5CC5)c(=O)[nH]c4c3)CC2)cn1` [Compound 66], the IC50 (class symbols) was 0.01 to 0.05 µM. For `CNC(=O)c1ccc(N2CCN(Cc3cnc4cc(C5CC5)c(=O)[nH]c4c3)CC2)nn1` [Compound 67], the half-inhibitory concentration (IC50) (class symbols) is at most 0.01 µM. `CNC(=O)c1ccc(N2CCN(C(C)c3cnc4cc(C5CC5)c(=O)[nH]c4c3)CC2)cn1` (stereo not drawn) [Compound 68]: the half-maximal inhibitory concentration (IC50) (class symbols) is at most 0.01 µM.
